Laboratory results: the supplement of paper PMC10307832

Tests used:
Assay in all cases: relative viability (nuclei count vs DMSO), 5 days (fraction); higher = more cells survive
Palbociclib + Trametinib = compound: CC(=O)c1c(C)c2cnc(Nc3ccc(N4CCNCC4)cn3)nc2n(C2CCCC2)c1=O [Palbociclib] + CC(=O)Nc1cccc(-n2c(=O)n(C3CC3)c(=O)c3c(Nc4ccc(I)cc4F)n(C)c(=O)c(C)c32)c1 [Trametinib] (partner 0.02 µM)
Procedure, shortened: (§1)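 Nuclei were stained with Hoechst during a one-step fixation (final 0.05% Triton X-100, 1% formaldehyde, 1 ug/ml Hoechst) carried out 5 days after dosing, then counted on 4× images. The cells, lung cancer lines in 1536-well plates, had been dosed by pin tool the day after seeding with one drug alone or a fixed anchor-drug dose plus five library-drug doses (not always all listed) in √10 steps. Relative viability is the nuclei count in treated wells divided by that in vehicle wells, and each value is the median of duplicate plates.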

Palbociclib + Navitoclax = compound: CC(=O)c1c(C)c2cnc(Nc3ccc(N4CCNCC4)cn3)nc2n(C2CCCC2)c1=O [Palbociclib] + CC1(C)CCC(c2ccc(Cl)cc2)=C(CN2CCN(c3ccc(C(=O)NS(=O)(=O)c4ccc(N[C@H](CCN5CCOCC5)CSc5ccccc5)c(S(=O)(=O)C(F)(F)F)c4)cc3)CC2)C1 [Navitoclax] (partner 0.5 µM)
Procedure, shortened: as §1

Palbociclib + Luminespib = compound: CC(=O)c1c(C)c2cnc(Nc3ccc(N4CCNCC4)cn3)nc2n(C2CCCC2)c1=O [Palbociclib] + CCNC(=O)c1noc(-c2cc(C(C)C)c(O)cc2O)c1-c1ccc(CN2CCOCC2)cc1 [Luminespib] (partner 0.01 µM)
Procedure, shortened: as §1

Palbociclib + Phenformin = compound: CC(=O)c1c(C)c2cnc(Nc3ccc(N4CCNCC4)cn3)nc2n(C2CCCC2)c1=O [Palbociclib] + N=C(N)NC(=N)NCCc1ccccc1 [Phenformin] (partner 250 µM)
Procedure, shortened: as §1

Cell Line	relative viability (Palbociclib + Trametinib; first compound 0.01 µM)	relative viability (Palbociclib + Trametinib; first compound 0.03162 µM)	relative viability (Palbociclib + Trametinib; first compound 0.1 µM)	relative viability (Palbociclib + Trametinib; first compound 0.3162 µM)	relative viability (Palbociclib + Trametinib; first compound 1 µM)	relative viability (Palbociclib + Navitoclax; first compound 0.01 µM)	relative viability (Palbociclib + Navitoclax; first compound 0.03162 µM)	relative viability (Palbociclib + Navitoclax; first compound 0.1 µM)	relative viability (Palbociclib + Navitoclax; first compound 0.3162 µM)	relative viability (Palbociclib + Navitoclax; first compound 1 µM)	relative viability (Palbociclib + Luminespib; first compound 0.01 µM)	relative viability (Palbociclib + Luminespib; first compound 0.03162 µM)	relative viability (Palbociclib + Luminespib; first compound 0.1 µM)	relative viability (Palbociclib + Luminespib; first compound 0.3162 µM)	relative viability (Palbociclib + Luminespib; first compound 1 µM)	relative viability (Palbociclib + Phenformin; first compound 0.01 µM)	relative viability (Palbociclib + Phenformin; first compound 0.03162 µM)	relative viability (Palbociclib + Phenformin; first compound 0.1 µM)	relative viability (Palbociclib + Phenformin; first compound 0.3162 µM)	relative viability (Palbociclib + Phenformin; first compound 1 µM)
NCI-H2228	0.606	0.373	0.494	0.522	0.483	0.99	1.01	0.729	0.856	0.827	0.173	0.182	0.149	0.126	0.098	0.322	0.287	0.293	0.258	0.307
NCI-H1299						1.09	0.949	0.909	0.846	0.715										
NCI-H650	1.02		0.771	0.915	0.792						0.921	0.613	0.629	0.793	0.609	0.447	0.371	0.403	0.352	0.316
PC-14	0.742	0.528	0.512	0.466	0.273	1.14	0.932	0.908	0.877	0.605	0.141		0.151	0.127	0.176	0.817		0.549	0.528	0.282
NCI-H838	0.643	0.477	0.396	0.376	0.175	1.16	1.03	0.859	0.938	0.423	0.274	0.346	0.267	0.257	0.265	0.628	0.562	0.402	0.467	0.202
NCI-H727	0.366	0.336	0.397	0.387	0.403	0.429	0.406	0.324	0.266	0.326	0.309	0.293	0.285	0.352	0.405	0.472	0.453	0.422	0.467	0.362
ABC-1											0.625	0.521	0.423	0.459	0.949	0.227	0.202	0.232	0.233	0.24
RERF-LC-KJ	0.793	0.771	0.846	0.813	0.91	0.87	0.8	1.26	1.32	1.11	1.4	1.17	0.937	1.3	1.48	0.419	0.414	0.418	0.459	0.485
A549						1.09	0.904	0.667	0.515	0.335						0.205	0.0665	0.11	0.129	0.096
NCI-H1437	0.553	0.522	0.456	0.332	0.293	1.1	1.04	0.933	0.923	0.563	1.16	1.07	0.961	0.89	0.666	0.321	0.445	0.258	0.237	0.199
